# Results: ChEMBL document CHEMBL3885881, “DrugMatrix”
# Organism: Rattus norvegicus
# Assay: DrugMatrix - Regimen: Daily Repeat
# Assay type: toxicity, organism-based, Sprague-Dawley
# Parameters: regimen Daily Repeat, gender Male, age 6-8 weeks
# Settings: in vivo, po, route oral GAVAGE, vehicle .5 % CMC; for ABSOLUTE BASOPHIL / ABSOLUTE EOSINOPHIL / ABSOLUTE LYMPHOCYTE / ABSOLUTE MONOCYTE / ABSOLUTE SEGMENTED NEUTROPHIL / BASOPHIL / EOSINOPHIL / ERYTHROCYTE COUNT / HEMATOCRIT / HEMOGLOBIN / LEUKOCYTE COUNT / LYMPHOCYTE / MEAN CORPUSCULAR HEMOGLOBIN / MEAN CORPUSCULAR HEMOGLOBIN CONCENTRATION / MEAN CORPUSCULAR VOLUME / MONOCYTE / NEUTROPHIL / NUCLEATED RED BLOOD CELLS / PLATELET COUNT: tissue Blood; for ALANINE AMINOTRANSFERASE / ALBUMIN / ALKALINE PHOSPHATASE / ASPARTATE AMINOTRANSFERASE / BLOOD UREA NITROGEN / CARBON DIOXIDE / CHLORIDE / CHOLESTEROL / CREATINE PHOSPHOKINASE / CREATININE / GLUCOSE / LACTATE DEHYDROGENASE / LIPASE / PHOSPHORUS / POTASSIUM / SODIUM / TOTAL BILIRUBIN / TOTAL PROTEIN / URIC ACID: tissue Plasma
# [1] = 10 mg/kg, 72 h, dose level Low, time 3 day
# [2] = 10 mg/kg, 120 h, dose level Low, time 5 day
# [3] = 1500 mg/kg, 72 h, dose level High, time 3 day
# [4] = 1500 mg/kg, 120 h, dose level High, time 5 day
structure (smiles),measurement,setting,value
NS(=O)(=O)c1cc2c(cc1Cl)NCNS2(=O)=O [HYDROCHLOROTHIAZIDE],ABSOLUTE BASOPHIL,[1],0 CELLS/uL
same,ABSOLUTE EOSINOPHIL,[1],69 CELLS/uL
same,ABSOLUTE LYMPHOCYTE,[1],10610.67 CELLS/uL
same,ABSOLUTE MONOCYTE,[1],107.67 CELLS/uL
same,ABSOLUTE SEGMENTED NEUTROPHIL,[1],3446 CELLS/uL
same,BASOPHIL,[1],0%
same,EOSINOPHIL,[1],0.33%
same,ERYTHROCYTE COUNT,[1],5.79 x10E6/uL
same,HEMATOCRIT,[1],34.73%
same,HEMOGLOBIN,[1],13.77 G/DL
same,LEUKOCYTE COUNT,[1],14.23 x10E3/uL
same,LYMPHOCYTE,[1],77.33%
same,MEAN CORPUSCULAR HEMOGLOBIN,[1],23.8 pg
same,MEAN CORPUSCULAR HEMOGLOBIN CONCENTRATION,[1],39.67 G/DL
same,MEAN CORPUSCULAR VOLUME,[1],60.07 fL
same,MONOCYTE,[1],1%
same,NEUTROPHIL,[1],21.33%
same,NUCLEATED RED BLOOD CELLS,[1],0 /100WBC
same,PLATELET COUNT,[1],1306 x10E3/uL
same,ALANINE AMINOTRANSFERASE,[1],49 u/L
same,ALBUMIN,[1],4.17 G/DL
same,ALKALINE PHOSPHATASE,[1],352 u/L
same,ASPARTATE AMINOTRANSFERASE,[1],90.67 u/L
same,BLOOD UREA NITROGEN,[1],14.33 mg/dL
same,CARBON DIOXIDE,[1],24.33 mmol/L
same,CHLORIDE,[1],103 MEQ/L
same,CHOLESTEROL,[1],65.67 mg/dL
same,CREATINE PHOSPHOKINASE,[1],517.67 u/L
same,CREATININE,[1],0.15 mg/dL
same,GLUCOSE,[1],149.33 mg/dL
same,LACTATE DEHYDROGENASE,[1],306.67 u/L
same,LIPASE,[1],10 u/L
same,PHOSPHORUS,[1],12.73 mg/dL
same,POTASSIUM,[1],6.56 MEQ/L
same,SODIUM,[1],144.2 MEQ/L
same,TOTAL BILIRUBIN,[1],0.2 mg/dL
same,TOTAL PROTEIN,[1],5.87 G/DL
same,URIC ACID,[1],2.5 mg/dL
same,ABSOLUTE BASOPHIL,[2],0 CELLS/uL
same,ABSOLUTE EOSINOPHIL,[2],0 CELLS/uL
same,ABSOLUTE LYMPHOCYTE,[2],12129.67 CELLS/uL
same,ABSOLUTE MONOCYTE,[2],37.67 CELLS/uL
same,ABSOLUTE SEGMENTED NEUTROPHIL,[2],1466 CELLS/uL
same,BASOPHIL,[2],0%
same,EOSINOPHIL,[2],0%
same,ERYTHROCYTE COUNT,[2],5.92 x10E6/uL
same,HEMATOCRIT,[2],36.07%
same,HEMOGLOBIN,[2],14.23 G/DL
same,LEUKOCYTE COUNT,[2],13.63 x10E3/uL
same,LYMPHOCYTE,[2],89.67%
same,MEAN CORPUSCULAR HEMOGLOBIN,[2],24.03 pg
same,MEAN CORPUSCULAR HEMOGLOBIN CONCENTRATION,[2],39.47 G/DL
same,MEAN CORPUSCULAR VOLUME,[2],60.83 fL
same,MONOCYTE,[2],0.33%
same,NEUTROPHIL,[2],10%
same,NUCLEATED RED BLOOD CELLS,[2],0 /100WBC
same,PLATELET COUNT,[2],1189.67 x10E3/uL
same,ALANINE AMINOTRANSFERASE,[2],46 u/L
same,ALBUMIN,[2],4.07 G/DL
same,ALKALINE PHOSPHATASE,[2],390.67 u/L
same,ASPARTATE AMINOTRANSFERASE,[2],89.67 u/L
same,BLOOD UREA NITROGEN,[2],13.67 mg/dL
same,CARBON DIOXIDE,[2],25.33 mmol/L
same,CHLORIDE,[2],101.67 MEQ/L
same,CHOLESTEROL,[2],62 mg/dL
same,CREATINE PHOSPHOKINASE,[2],269.33 u/L
same,CREATININE,[2],0.2 mg/dL
same,GLUCOSE,[2],162.33 mg/dL
same,LACTATE DEHYDROGENASE,[2],281.67 u/L
same,LIPASE,[2],9 u/L
same,PHOSPHORUS,[2],11.27 mg/dL
same,POTASSIUM,[2],6.59 MEQ/L
same,SODIUM,[2],143.33 MEQ/L
same,TOTAL BILIRUBIN,[2],0.17 mg/dL
same,TOTAL PROTEIN,[2],5.83 G/DL
same,URIC ACID,[2],2 mg/dL
same,ABSOLUTE BASOPHIL,[3],0 CELLS/uL
same,ABSOLUTE EOSINOPHIL,[3],0 CELLS/uL
same,ABSOLUTE LYMPHOCYTE,[3],11188.67 CELLS/uL
same,ABSOLUTE MONOCYTE,[3],0 CELLS/uL
same,ABSOLUTE SEGMENTED NEUTROPHIL,[3],1278 CELLS/uL
same,BASOPHIL,[3],0%
same,EOSINOPHIL,[3],0%
same,ERYTHROCYTE COUNT,[3],5.96 x10E6/uL
same,HEMATOCRIT,[3],35.57%
same,HEMOGLOBIN,[3],13.93 G/DL
same,LEUKOCYTE COUNT,[3],12.47 x10E3/uL
same,LYMPHOCYTE,[3],90%
same,MEAN CORPUSCULAR HEMOGLOBIN,[3],23.43 pg
same,MEAN CORPUSCULAR HEMOGLOBIN CONCENTRATION,[3],39.2 G/DL
same,MEAN CORPUSCULAR VOLUME,[3],59.7 fL
same,MONOCYTE,[3],0%
same,NEUTROPHIL,[3],10%
same,NUCLEATED RED BLOOD CELLS,[3],0.67 /100WBC
same,PLATELET COUNT,[3],1140 x10E3/uL
same,ALANINE AMINOTRANSFERASE,[3],52.67 u/L
same,ALBUMIN,[3],4.17 G/DL
same,ALKALINE PHOSPHATASE,[3],353.33 u/L
same,ASPARTATE AMINOTRANSFERASE,[3],88.33 u/L
same,BLOOD UREA NITROGEN,[3],19 mg/dL
same,CARBON DIOXIDE,[3],31 mmol/L
same,CHLORIDE,[3],95.33 MEQ/L
same,CHOLESTEROL,[3],70.67 mg/dL
same,CREATININE,[3],0.2 mg/dL
same,GLUCOSE,[3],159.33 mg/dL
same,LACTATE DEHYDROGENASE,[3],413 u/L
same,LIPASE,[3],9.67 u/L
same,PHOSPHORUS,[3],11.27 mg/dL
same,POTASSIUM,[3],5.57 MEQ/L
same,SODIUM,[3],141.57 MEQ/L
same,TOTAL BILIRUBIN,[3],0.17 mg/dL
same,TOTAL PROTEIN,[3],5.8 G/DL
same,URIC ACID,[3],1.43 mg/dL
same,ABSOLUTE BASOPHIL,[4],0 CELLS/uL
same,ABSOLUTE EOSINOPHIL,[4],84 CELLS/uL
same,ABSOLUTE LYMPHOCYTE,[4],12827 CELLS/uL
same,ABSOLUTE MONOCYTE,[4],104 CELLS/uL
same,ABSOLUTE SEGMENTED NEUTROPHIL,[4],1585 CELLS/uL
same,BASOPHIL,[4],0%
same,EOSINOPHIL,[4],0.67%
same,ERYTHROCYTE COUNT,[4],5.59 x10E6/uL
same,HEMATOCRIT,[4],33.87%
same,HEMOGLOBIN,[4],13.63 G/DL
same,LEUKOCYTE COUNT,[4],14.6 x10E3/uL
same,LYMPHOCYTE,[4],88%
same,MEAN CORPUSCULAR HEMOGLOBIN,[4],24.4 pg
same,MEAN CORPUSCULAR HEMOGLOBIN CONCENTRATION,[4],40.23 G/DL
same,MEAN CORPUSCULAR VOLUME,[4],60.63 fL
same,MONOCYTE,[4],0.67%
same,NEUTROPHIL,[4],10.67%
same,NUCLEATED RED BLOOD CELLS,[4],0 /100WBC
same,PLATELET COUNT,[4],1221.67 x10E3/uL
same,ALANINE AMINOTRANSFERASE,[4],64.67 u/L
same,ALBUMIN,[4],4.33 G/DL
same,ALKALINE PHOSPHATASE,[4],393 u/L
same,ASPARTATE AMINOTRANSFERASE,[4],80 u/L
same,BLOOD UREA NITROGEN,[4],20 mg/dL
same,CARBON DIOXIDE,[4],31.33 mmol/L
same,CHLORIDE,[4],97 MEQ/L
same,CHOLESTEROL,[4],69 mg/dL
same,CREATINE PHOSPHOKINASE,[4],157.67 u/L
same,CREATININE,[4],0.2 mg/dL
same,GLUCOSE,[4],153.33 mg/dL
same,LACTATE DEHYDROGENASE,[4],110.33 u/L
same,LIPASE,[4],10 u/L
same,PHOSPHORUS,[4],12.1 mg/dL
same,POTASSIUM,[4],6.18 MEQ/L
same,SODIUM,[4],144.7 MEQ/L
same,TOTAL BILIRUBIN,[4],0.2 mg/dL
same,TOTAL PROTEIN,[4],5.97 G/DL
same,URIC ACID,[4],1.57 mg/dL
